Legend:
[1] = biological target: His-tagged recombinant human ABL1 (Homo sapiens (Human), UniProt P00519); assay: c-Abl Kinase Assay (ADP-Glo); type: biochemical; conditions: in vitro kinase activity, ATP 25 μM
Procedure: ADP-Glo assay kit was purchased from Promega. Magnesium chloride (MgCl2), bovine serum albumin (BSA), ethylene glycol-bis(β-aminoethyl ether)-N,N,N′,N′-tetraacetic acid (EGTA), tween-20, 1,4-dithiothreitol (DTT) and dimethyl sulfoxide (DMSO) were purchased from Sigma-Aldrich. HEPES buffer was purchased from Gibco. ABL1 kinase and Abltide were purchased from Signalchem.
c-Abl kinase activity was measured by Promega's ADP-Glo™ Assay. In this assay, His-tagged recombinant human ABL1 (0.25 ng/μl) is incubated with 5 μL of compounds (0.5% DMSO), 5 μL of Abltide (0.01 μg/μl) and 5 μL of ATP (25 μM) in buffer (50 mM HEPES, 7.5; 10 mM MgCl2; 1 mM EGTA; 0.05% BSA; 0.01% Tween-20; 2 mM DTT). The assay was started by incubating the reaction mixture in a 96-well plate at 30° C. for 30 min. After the incubation, 25 μL ADP-Glo reagent was added and the reaction was incubated at room temperature for 40-min to stop the reaction and degrade residual ATP. The ADP product was then converted to ATP by adding 50 μL per well of detection reagent. Luminescence was detected after 30-min room temperature incubation with the Molecular device I3X plate reader. The IC50 values were calculated from a series of percent inhibition values determined at a range of inhibitor concentration using software routines as implemented in the GraphPad Prism 7 software and Sigma Plot 13.0.

[2] = biological target: GST-tagged recombinant human RIP2 (Homo sapiens (Human), UniProt O43353); assay: RIP2 Kinase Assay (ADP-Glo); type: biochemical; conditions: in vitro kinase activity, ATP 25 μM
Chain of GST-tagged recombinant human RIP2 (O43353 whole entry): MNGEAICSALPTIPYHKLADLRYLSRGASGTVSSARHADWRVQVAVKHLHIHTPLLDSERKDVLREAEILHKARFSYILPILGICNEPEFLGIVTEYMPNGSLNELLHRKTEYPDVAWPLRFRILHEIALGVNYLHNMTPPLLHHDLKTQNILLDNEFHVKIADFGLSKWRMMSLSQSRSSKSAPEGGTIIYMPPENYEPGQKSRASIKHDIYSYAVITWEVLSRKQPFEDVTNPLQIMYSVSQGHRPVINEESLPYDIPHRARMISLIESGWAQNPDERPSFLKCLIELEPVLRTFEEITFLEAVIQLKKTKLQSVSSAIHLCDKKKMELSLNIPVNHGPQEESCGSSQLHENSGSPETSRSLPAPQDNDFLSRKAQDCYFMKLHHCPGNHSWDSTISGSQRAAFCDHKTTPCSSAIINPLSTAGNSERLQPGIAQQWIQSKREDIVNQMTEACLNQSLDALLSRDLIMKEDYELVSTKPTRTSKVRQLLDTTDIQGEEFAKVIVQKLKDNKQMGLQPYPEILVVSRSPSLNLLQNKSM
Procedure: GST-tagged recombinant human RIP2 (25 ng) is incubated with 5 μL of compounds (0.5% DMSO), 5 μL of MBP (0.5 μg/μl) and 5 μL of ATP (25 μM) in buffer (40 mM Tris, 7.5; 20 mM MgCl2; 0.1 mg/ml BSA; 50 μM DTT). The assay was started by incubating the reaction mixture in a 96-well plate at 30° C. for 60 minutes. After the incubation, 25 μL ADP-Glo reagent was added, and the reaction was incubated at 30° C. for 40 minutes to stop the reaction and degrade residual ATP. The ADP product was then converted to ATP by adding 50 μL per well of detection reagent. Luminescence was detected after 30 minutes room temperature incubation with the Molecular device I3X plate reader. The IC50 values were calculated from a series of percent inhibition values determined at a range of inhibitor concentration using software routines as implemented in the GraphPad Prism 7 software and SigmaPlot 13.0.

[3] = system: IL-6 secretion in BV-2 mouse microglia cells; assay: IL-6 Secretion in BV-2 Cell (L18-MDP stimulated, ELISA); type: cell-based; conditions: BV-2 cells, 10 μg/ml L18-MDP, 24 hr
Procedure: IL-6 Secretion in BV-2 Cell
BV-2 mouse microglia cells were kindly provided from Dr. Bae in Korea Institute of Science and Technology (KIST). BV-2 cells were thawed and suspended in Dulbecco's modified eagle medium (DMEM) supplemented with 10% fetal bovine serum (FBS) and 1% Penicillin/Streptomycin. Cells were seeded into 96 well plates at 2×10^4 cells/well and allowed to attach for 24 hr. On the day of the experiment, various concentration of FB compounds was treated, and cells were stimulated with 10 μg/ml L18-MDP. After 24 hr incubation, supernatant was collected for cytokine assay.
Absorbance at 450 nm was measured using SpectraMax i3X microplate reader (Molecular Device). Values of media-only wells were subtracted and % inhibition for each compound concentration relative to the DMSO/L18-MDP-treated controls (100%) was calculated. The IC50 values were calculated from a series of percent activity values using software as implemented in the GraphPad Prism 7 software and SigmaPlot 13.0.

Chain of His-tagged recombinant human ABL1 (P00519 whole entry): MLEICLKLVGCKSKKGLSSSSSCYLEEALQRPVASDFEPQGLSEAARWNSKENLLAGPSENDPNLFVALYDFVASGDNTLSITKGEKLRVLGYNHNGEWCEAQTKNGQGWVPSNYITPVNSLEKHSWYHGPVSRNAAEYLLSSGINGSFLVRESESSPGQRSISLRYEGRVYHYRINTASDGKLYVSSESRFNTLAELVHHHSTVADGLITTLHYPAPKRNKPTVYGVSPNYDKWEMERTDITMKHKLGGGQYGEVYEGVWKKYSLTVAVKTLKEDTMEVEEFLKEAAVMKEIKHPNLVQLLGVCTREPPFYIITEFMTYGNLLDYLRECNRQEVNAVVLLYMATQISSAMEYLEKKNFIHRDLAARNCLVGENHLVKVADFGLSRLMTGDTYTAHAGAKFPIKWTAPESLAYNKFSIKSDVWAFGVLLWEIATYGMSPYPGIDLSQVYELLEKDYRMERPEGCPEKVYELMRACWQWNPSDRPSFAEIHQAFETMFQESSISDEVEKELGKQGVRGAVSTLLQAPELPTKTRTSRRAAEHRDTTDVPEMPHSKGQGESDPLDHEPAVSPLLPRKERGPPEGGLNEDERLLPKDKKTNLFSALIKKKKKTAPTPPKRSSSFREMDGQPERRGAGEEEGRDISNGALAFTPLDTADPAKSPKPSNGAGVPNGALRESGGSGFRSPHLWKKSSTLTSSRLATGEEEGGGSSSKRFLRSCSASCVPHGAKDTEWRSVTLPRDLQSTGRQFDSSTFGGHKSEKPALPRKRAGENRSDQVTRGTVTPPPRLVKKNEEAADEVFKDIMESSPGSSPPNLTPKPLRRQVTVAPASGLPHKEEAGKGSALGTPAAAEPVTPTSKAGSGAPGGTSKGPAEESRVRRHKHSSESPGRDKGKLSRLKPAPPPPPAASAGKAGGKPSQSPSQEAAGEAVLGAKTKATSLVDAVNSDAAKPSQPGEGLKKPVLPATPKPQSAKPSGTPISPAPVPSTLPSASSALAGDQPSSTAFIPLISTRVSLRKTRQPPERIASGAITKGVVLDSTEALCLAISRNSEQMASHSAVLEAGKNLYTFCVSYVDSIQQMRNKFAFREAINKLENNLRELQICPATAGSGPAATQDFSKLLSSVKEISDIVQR

SMILES	IC50 [1]	IC50 [2]	IC50 [3]
Nc1nc2ccc(-c3ccc4[nH]ccc4c3)cn2c1C(=O)[C@@H]1C[C@@H]1F [Example 51]	1 to 100 nM	1 to 100 nM	101 to 500 nM
Nc1nc2ccc(-c3cccc(F)c3Cl)cn2c1C(=O)[C@@H]1C[C@@H]1F [Example 44]	–	1 to 100 nM	501 to 1000 nM
Cc1c(-c2ccc3nc(N)c(C(=O)[C@@H]4C[C@@H]4F)n3c2)cnc2[nH]ccc12 [Example 40]	1 to 100 nM	1 to 100 nM	101 to 500 nM
Cc1ccc2[nH]ncc2c1-c1ccc2nc(N)c(C(=O)C3CC3)n2c1 [Example 3]	–	1 to 100 nM	> 1000 nM
CN(C)c1c(F)c(Cl)c(-c2ccc3nc(N)c(C(=O)[C@@H]4C[C@@H]4F)n3c2)c2cn[nH]c12 [Example 65]	–	> 1000 nM	> 1000 nM
Cc1c(-c2ccc3nc(N)c(C(=O)C4CNC4)n3c2)cnc2[nH]ccc12 [Example 82]	–	1 to 100 nM	> 1000 nM
Nc1nc2ccc(-c3cccc4[nH]ccc34)cn2c1C(=O)[C@@H]1C[C@@H]1F [Example 57]	1 to 100 nM	1 to 100 nM	101 to 500 nM
Cc1c(F)cc2[nH]ncc2c1-c1ccc2nc(N)c(C(=O)[C@@H]3C[C@@H]3F)n2c1 [Example 60]	101 to 500 nM	1 to 100 nM	1 to 100 nM
Nc1nc2ccc(-c3cnc4[nH]ccc4c3)cn2c1C(=O)[C@@H]1C[C@@H]1F [Example 32]	–	1 to 100 nM	101 to 500 nM
Nc1nc2ccc(-c3c(Cl)c(F)cc4[nH]ncc34)cn2c1C(=O)[C@@H]1C[C@@H]1F [Example 64]	–	1 to 100 nM	101 to 500 nM
Nc1nc2ccc(-c3cnc4[nH]ccc4c3Cl)cn2c1C(=O)[C@@H]1C[C@@H]1F [Example 41]	–	1 to 100 nM	101 to 500 nM
Nc1nc2ccc(-c3cnc4[nH]ccc4c3Cl)cn2c1C(=O)C1CNC1 [Example 83]	–	1 to 100 nM	> 1000 nM
Nc1nc2ccc(-c3cnc4[nH]ccc4c3F)cn2c1C(=O)[C@@H]1C[C@@H]1F [Example 69]	–	1 to 100 nM	501 to 1000 nM
Cc1c(F)cccc1-c1ccc2nc(N)c(C(=O)[C@@H]3C[C@@H]3F)n2c1 [Example 5]	1 to 100 nM	1 to 100 nM	501 to 1000 nM
Nc1nc2ccc(-c3ccc4[nH]ccc4c3)cn2c1C(=O)c1ccccn1 [Example 67]	–	1 to 100 nM	501 to 1000 nM
Nc1nc2ccc(-c3cnc4[nH]ccc4c3)cn2c1C(=O)C1CNC1 [Example 86]	–	1 to 100 nM	> 1000 nM
Cc1c(F)cccc1-c1ccc2nc(N)c(C(=O)c3ccccc3)n2c1 [Example 13]	–	101 to 500 nM	–
Nc1nc2ccc(-c3cnc4[nH]ccc4c3)cn2c1C(=O)c1ccccn1 [Example 68]	–	1 to 100 nM	101 to 500 nM

Second part, the compound after the results:

IC50 [1]	IC50 [2]	IC50 [3]	SMILES
1 to 100 nM	1 to 100 nM	101 to 500 nM	Nc1nc2ccc(-c3ccnc4[nH]ccc34)cn2c1C(=O)[C@@H]1C[C@@H]1F [Example 104]
–	1 to 100 nM	501 to 1000 nM	Nc1nc2ccc(-c3cnc4[nH]ccc4c3Cl)cn2c1C(=O)c1ccccn1 [Example 75]
1 to 100 nM	1 to 100 nM	101 to 500 nM	Cc1c(-c2ccc3nc(N)c(C(=O)[C@@H]4C[C@@H]4F)n3c2)ccc2[nH]ccc12 [Example 89, (2-amino-6-(4-methyl-1H-indol-5-yl)imidazo[1,2-a]pyridin-3-yl)((1S,2S)-2-fluorocyclopropyl)methanone]
1 to 100 nM	1 to 100 nM	101 to 500 nM	Nc1nc2ccc(-c3cc(F)cc4[nH]ccc34)cn2c1C(=O)[C@@H]1C[C@@H]1F [Example 113]
–	1 to 100 nM	501 to 1000 nM	Cc1c(-c2ccc3nc(N)c(C(=O)c4ncccn4)n3c2)cnc2[nH]ccc12 [Example 85]
–	1 to 100 nM	501 to 1000 nM	Nc1nc2ccc(-c3c(F)ccc4[nH]ccc34)cn2c1C(=O)[C@@H]1C[C@@H]1F [Example 101]
–	1 to 100 nM	501 to 1000 nM	Cc1c(-c2ccc3nc(N)c(C(=O)[C@@H]4C[C@@H]4F)n3c2)ccc2[nH]ncc12 [Example 90]
–	1 to 100 nM	101 to 500 nM	Nc1nc2ccc(-c3ccnc4ccccc34)cn2c1C(=O)[C@@H]1C[C@@H]1F [Example 115]
1 to 100 nM	1 to 100 nM	101 to 500 nM	Cc1c(F)cc2[nH]ccc2c1-c1ccc2nc(N)c(C(=O)[C@@H]3C[C@@H]3F)n2c1 [Example 114]
–	1 to 100 nM	501 to 1000 nM	Cc1c(-c2ccc3nc(N)c(C(=O)c4ccncn4)n3c2)cnc2[nH]ccc12 [Example 84]
–	1 to 100 nM	101 to 500 nM	Nc1nn2ccc(-c3cccc4[nH]ccc34)cc2c1C(=O)C1CC1 [Example 152]
–	1 to 100 nM	> 1000 nM	Cc1c(F)cccc1-c1ccn2nc(N)c(C(=O)C3CC3)c2c1 [Example 154]
–	1 to 100 nM	101 to 500 nM	Cc1ccc2[nH]ccc2c1-c1ccc2nc(N)c(C(=O)[C@@H]3C[C@@H]3F)n2c1 [Example 100]
–	1 to 100 nM	> 1000 nM	Cc1c(-c2ccc3nc(N)c(C(=O)C4CCNC4)n3c2)cnc2[nH]ccc12 (stereo not drawn) [Example 94]
–	1 to 100 nM	> 1000 nM	Nc1nc2ccc(-c3cnc4[nH]ccc4c3)cn2c1C(=O)c1ncccn1 [Example 79]
–	1 to 100 nM	501 to 1000 nM	Cc1c(F)cc2[nH]ncc2c1-c1ccn2nc(N)c(C(=O)C3CC3)c2c1 [Example 153, (2-amino-5-(6-fluoro-5-methyl-1H-indazol-4-yl)pyrazolo[1,5-a]pyridin-3-yl)(cyclopropyl)methanone]
–	1 to 100 nM	101 to 500 nM	Nc1nc2ccc(-c3ccc4[nH]ccc4c3Cl)cn2c1C(=O)[C@@H]1C[C@@H]1F [Example 73]
–	1 to 100 nM	> 1000 nM	Nc1nc2ccc(-c3cnc4[nH]ccc4c3Cl)cn2c1C(=O)C1CCNC1 (stereo not drawn) [Example 95]
1 to 100 nM	1 to 100 nM	101 to 500 nM	Nc1nc2ccc(-c3c[nH]c4ccccc34)cn2c1C(=O)[C@@H]1C[C@@H]1F [Example 105]
–	101 to 500 nM	–	Cc1cc(-c2ccc3nc(N)c(C(=O)[C@@H]4C[C@@H]4F)n3c2)sn1 [Example 72]
–	1 to 100 nM	501 to 1000 nM	Nc1nc2ccc(-c3c[nH]c4ncccc34)cn2c1C(=O)[C@@H]1C[C@@H]1F [Example 110]
–	101 to 500 nM	–	COC(=O)c1c(N)nc2ccc(-c3cccc(F)c3C)cn12 [Example 135, methyl 2-amino-6-(3-fluoro-2-methylphenyl)imidazo[1,2-a]pyridine-3-carboxylate]
–	> 1000 nM	–	CC(=O)NNC(=O)c1c(N)nc2ccc(-c3cccc(F)c3C)cn12 [Example 112, N′-acetyl-2-amino-6-(3-fluoro-2-methylphenyl)imidazo[1,2-a]pyridine-3-carbohydrazide]
–	1 to 100 nM	101 to 500 nM	Cc1c(-c2ccc3nc(N)c(C(=O)c4ccccn4)n3c2)cnc2[nH]ccc12 [Example 74]

— patent US11744824B2, “2-amino-3-carbonyl imidazopyridine and pyrazolopyridine compounds” (1ST Biotherapeutics, Inc., priority 2020, dated 2023)
